According to ChEMBL document CHEMBL1201862, “PubChem BioAssay data set” (2004):
Calls of active or inactive are those of the source. Cut-off read from the data, not from the text of the source, for most assays here: actives have a measured EC50 and inactives only a lower limit.

Legend:
[1] = target: T1, Corticotropin-releasing factor receptor 2/Corticotropin-releasing factor-binding protein (Homo sapiens, UniProt P24387+Q13324); test: Dose Response confirmation of uHTS hits for small molecule antagonists of the CRF-binding protein and CRF-R2 receptor complex.; assay type: functional; settings: read-out: IC50_Mean
T1 sequence (Q13324 whole entry): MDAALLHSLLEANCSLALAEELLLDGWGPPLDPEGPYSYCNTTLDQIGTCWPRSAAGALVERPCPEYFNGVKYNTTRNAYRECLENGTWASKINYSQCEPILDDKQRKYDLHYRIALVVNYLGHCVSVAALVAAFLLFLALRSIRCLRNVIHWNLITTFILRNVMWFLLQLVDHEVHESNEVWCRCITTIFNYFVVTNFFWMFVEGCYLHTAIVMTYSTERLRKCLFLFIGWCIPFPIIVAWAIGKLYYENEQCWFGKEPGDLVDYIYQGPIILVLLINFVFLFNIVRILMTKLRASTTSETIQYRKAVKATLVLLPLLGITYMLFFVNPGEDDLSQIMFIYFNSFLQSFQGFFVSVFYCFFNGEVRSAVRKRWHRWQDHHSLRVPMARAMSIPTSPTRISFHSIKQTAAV
T1 sequence (P24387 whole entry): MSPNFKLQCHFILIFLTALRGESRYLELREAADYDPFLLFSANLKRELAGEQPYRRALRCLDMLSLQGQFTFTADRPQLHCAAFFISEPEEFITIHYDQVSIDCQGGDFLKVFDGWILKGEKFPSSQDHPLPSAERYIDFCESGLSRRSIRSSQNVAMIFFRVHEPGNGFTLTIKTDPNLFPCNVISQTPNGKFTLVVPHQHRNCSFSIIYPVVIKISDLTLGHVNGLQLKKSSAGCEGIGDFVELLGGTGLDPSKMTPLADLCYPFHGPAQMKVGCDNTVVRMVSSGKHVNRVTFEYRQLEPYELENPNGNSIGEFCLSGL

[2] = target: T1, Corticotropin-releasing factor receptor 2/Corticotropin-releasing factor-binding protein; test: activators of CRF receptor 2 with binding protein – uHTS hits, confirmation (AID 602473); assay type: functional; settings: read-out: EC50_Mean
[3] = viability of uninfected HEp-2 cells – cell-based, HTS, cytotoxicity control for RSV inhibitor project, dose response (AID 2410); assay type: functional; settings: human respiratory syncytial virus
[4] = system: H9c2; test: cells; assay type: functional, cell-based; settings: Rattus norvegicus, H9c2, Myocardium;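 note: confirmatory concentration-response retest of ultra-high-throughput screening hits for modulation of myocardial damage; cell death induced by hydrogen peroxide oxidative stress; compound pretreatment for 60 min then peroxide exposure for 2 h; potency is for protecting the cells against peroxide damage rather than for killing them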
[5] = cells; assay type: functional, cell-based
[6] = cells; assay type: functional, cell-based; remark: listed apart in the source
[7] = Luminescence Cell-Based Dose Confirmation HTS to Identify Activators of 5'UTR Stem-Loop Driven Alpha-Synuclein mRNA Translation in H4 Neuroglioblastoma Cells. [Related pubchem assays: 1829 (Project Summary), 1814 (Primary HTS)]; assay type: functional
[8] = Luminescence Cell-Based Dose Response HTS to Identify Activators of Luciferase Translation or Activity in H4 […] Cells. [Related pubchem assays: 1829 (Project Summary), 1814 (Primary HTS)]; assay type: functional
[9] = system: H4; test: Luminescence Cell-Based Dose Response HTS to Identify Activators of 5'UTR Stem-Loop Driven Prion Protein mRNA Translation in H4 Neuroglioblastoma Cells. [Related pubchem assays: 1829 (Project Summary), 1814 (Primary HTS)]; assay type: functional; settings: Homo sapiens
[10] = viability of PTEN-deleted HCT116 cells – cell-based, HCT116 PTEN knockout, dose response (AID 1047); assay type: functional;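 note: HCT116 colon tumor cells with PTEN knocked out; cells exposed to compound for 60 hours before readout; potency for loss of cell viability measured by luminescence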
[11] = NIH-3T3 fibroblast cytotoxicity, dose response, cytotoxicity control, cell-based, fluorescence, Alamar Blue, secondary assay (AID 2327); assay type: functional;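 note: NIH-3T3 mouse fibroblasts cultured with fluconazole at 8 µg/mL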

For O=C(Nc1ccc(Cl)cn1)c1cccc(S(=O)(=O)N2CCCC2)c1, the IC50 [1] was > 47.1 µM (inactive) and the EC50 [2] was > 53 µM (inactive).

For COc1ccc2sc(NC(=O)NC(=O)c3c(Cl)cccc3Cl)nc2c1, the CC50 [3] was 17.3 µM (active).

With CN(Cc1cccc(Cl)c1)C(=O)C1CCC(=O)N(C2CC2)C1 (stereo not drawn) the IC50 [1] was > 47.1 µM (inactive) and the EC50 [2] was > 53 µM (inactive).

With COc1cc(-c2cc(C(=O)N3CCN(c4ccccn4)CC3)c3ccccc3n2)cc(OC)c1OC the IC50 [4] was > 79 µM (inactive).

In the case of O=C(N[C@@H](Cc1ccccc1)C(=O)OCc1ccccc1)c1[nH]cnc1C(=O)N1CCc2ccccc2C1, the CC50 [3] is reported as 26.1 µM (active).

In the case of CC1CC(C)CN(S(=O)(=O)c2ccc3c(c2)oc(=O)n3CC(=O)NCCCOC(C)C)C1 (stereo not drawn), the EC50 [5] is reported as > 350 µM (not active) and the EC50 [6] is reported as > 350 µM (not active).

For CC(C)(C)C(=O)N1CCN(c2nc3ccc(Cl)cc3s2)CC1, the EC50 [7] was 0.369 µM (active), the EC50 [8] was 0.244 µM (active) and the EC50 [9] was 15.2 µM (active).

For Cn1c2ccccc2c2ncn(CCC3=CCCCC3)c(=O)c21, the EC50 [7] was 24 µM (active), the EC50 [8] was 21.7 µM (active) and the EC50 [9] was 29.8 µM (active).

In the case of Cc1cccc(-n2c(N)cc(=O)[nH]c2=S)c1, the EC50 [7] is reported as > 120 µM (not active), the EC50 [8] is reported as > 120 µM (not active) and the EC50 [9] is reported as > 120 µM (not active).

For Cc1cc(NC(=O)C(C)C)ncc1NC(=O)CCc1ccccc1, the EC50 [2] was > 53 µM (inactive).

For Cc1ccc(N(C(=O)Cn2nnc(-c3ccccc3F)n2)C(C(=O)NC2CCCC2)c2ccncc2)cc1 (stereo not drawn), the IC50 [1] was > 47.1 µM (inactive) and the EC50 [2] was > 53 µM (inactive).

For CN(C)c1nn(C(=O)Nc2cccc(C(F)(F)F)c2)cc1-c1ccccc1, the EC50 [10] was 42.1 µM (active).

In the case of O=C(O)C1CCN(C(=O)OCc2ccccc2)CC1, the EC50 [7] is reported as 0.602 µM (active), the EC50 [8] is reported as 87.1 µM (active) and the EC50 [9] is reported as 6.56 µM (active).

In the case of CCOC(=O)CSc1nc(O)c2ccccc2n1, the IC50 [4] is reported as > 79 µM (inactive).

For CCc1nn(CCCC(=O)N2CCN(c3cccc(C)c3C)CC2)c(=O)c2cc3occc3n12, the CC50 [3] was 17 µM (active).

In the case of O=C(NN=Cc1cccc([N+](=O)[O-])c1)c1cc(-c2cccnc2)nc2ccccc12, the IC50 [4] is reported as > 79 µM (inactive).

For Cc1cccn2c(=O)c(C=O)c(Nc3ccc(S(N)(=O)=O)cc3)nc12, the EC50 [7] was 14.8 µM (active), the EC50 [8] was 26.4 µM (active) and the EC50 [9] was > 120 µM (not active).

With O=S(=O)(NC(=S)NC1CCCCC1)c1ccc(Br)cc1 the IC50 [1] was > 47.1 µM (inactive) and the EC50 [2] was > 53 µM (inactive).

In the case of COc1ccc(CN2C(=O)NC(=O)/C(=C\NNC(=O)c3ccccc3)C2=O)cc1, the EC50 [11] is reported as 56 µM (active).

In the case of Cn1c(SCC(=O)Nc2ccccc2)nnc1-c1ccc(NC(=O)CCc2ccccc2)cc1, the EC50 [5] is reported as > 350 µM (not active) and the EC50 [6] is reported as > 350 µM (not active).

With COc1cc(CNc2ccc(N3CCCC3)cc2)ccc1OCc1ccccc1 the CC50 [3] was 13 µM (active).

In the case of CCn1c(O)c(/C=N/N=C2CCCCC2)c2cc(C3=NNC(=O)CC3)ccc21, the IC50 [4] is reported as > 79 µM (inactive).
